From the CheMixHub viscosity set
Where “and” joins values, the source holds several entries; their conditions need not be identical. Identical values can stand only once.

Experiment: xn = mol fraction of the nth substance listed

C[N+](=O)[O-] + CS(C)=O
viscosity [mPa·s], 101.3 kPa
Settings	x2 = 0.1135	x2 = 0.117	x2 = 0.2337	x2 = 0.2468	x2 = 0.432	x2 = 0.4324	x2 = 0.5837	x2 = 0.5943	x2 = 0.812	x2 = 0.8156
298 K	0.726	–	0.823	–	1.014	–	–	1.229	1.613	–
318 K	–	0.5753	–	0.6471	–	0.7717	0.8878	–	–	1.12

Cc1cccc(O)c1 + C[N+](C)(C)CCO.[Cl-]
298.15 K, 101.33 kPa
Settings	viscosity
x1 = 0.7	138.1 mPa·s
x1 = 0.8	74.18 mPa·s and 56.16 mPa·s and 49.24 mPa·s
x1 = 0.9	39.12 mPa·s

C[Si]1(C)O[Si](C)(C)O[Si](C)(C)O[Si](C)(C)O[Si](C)(C)O[Si](C)(C)O1 + C[Si](C)(C)O[Si](C)(C)O[Si](C)(C)O[Si](C)(C)C
Settings	viscosity [mPa·s]
298.15 K, 101 kPa, x2 = 0.457	3.47

C[N+](=O)[O-] + Cc1ccc(C)cc1
293.15 K, 101.33 kPa
Settings	viscosity [mPa·s]
x1 = 0.1151	0.632
x1 = 0.2724	0.628
x1 = 0.4256	0.626
x1 = 0.481	0.625
x1 = 0.6051	0.625
x1 = 0.6915	0.626
x1 = 0.794	0.627
x1 = 0.8837	0.632

C[N+](=O)[O-] + Cc1ccccc1
298.15 K, 101 kPa
Settings	viscosity [mPa·s]
x1 = 0.1803	0.5448
x1 = 0.3318	0.5368
x1 = 0.4595	0.5331
x1 = 0.5699	0.534
x1 = 0.665	0.542
x1 = 0.7483	0.5534
x1 = 0.8226	0.5683
x1 = 0.888	0.5861
x1 = 0.9472	0.6066

Cc1cccc(O)c1 + Cc1ccccc1
308.15 K, 101 kPa
Settings	viscosity [mPa·s]
x1 = 0.0892	0.5693
x1 = 0.198	0.7009
x1 = 0.3227	0.9138
x1 = 0.4371	1.215
x1 = 0.5644	1.71
x1 = 0.6801	2.44
x1 = 0.7905	3.416
x1 = 0.8866	4.871
x1 = 0.9596	6.414

CCCCC(CC)COP(=O)(O)OCC(CC)CCCC (configuration not stated) + Cc1ccccc1C
viscosity [mPa·s], 101 kPa
Settings	x1 = 0.1	x1 = 0.2	x1 = 0.398	x1 = 0.606	x1 = 0.796	x1 = 0.9
303.15 K	1.039	2.217	8.93	29.43	77.84	124.5
308.15 K	0.981	2.056	7.798	24.38	61.89	96.93
313.15 K	0.915	1.88	6.923	20.18	48.95	76.04
318.15 K	0.867	1.743	5.965	18.03	41.55	63.57

Cc1cccc(O)c1 + Cc1ccccc1N
298.15 K, 101 kPa
Settings	viscosity [mPa·s]
x1 = 0.33	8.06
x1 = 0.496	11.21
x1 = 0.662	13.84
x1 = 0.751	13.76

CCC1(C)OC1C#N (configuration not stated) + ClC(Cl)(Cl)Cl
viscosity [mPa·s], 101 kPa
Settings	293.15 K	298.15 K	303.15 K	313.15 K	323.15 K
x1 = 0.0076	0.977	0.906	0.875	0.75	0.646
x1 = 0.008	0.983	0.938	0.873	0.776	0.698

CCCCOCCOCCOCCO + ClC(Cl)=C(Cl)Cl
298.15 K, 101.33 kPa
Settings	viscosity [mPa·s]
x2 = 0.0067	0.864
x2 = 0.0173	0.895
x2 = 0.0345	0.95
x2 = 0.0476	0.995
x2 = 0.06	1.04
x2 = 0.0815	1.124
x2 = 0.1063	1.227
x2 = 0.1471	1.408
x2 = 0.184	1.601
x2 = 0.2264	1.828
x2 = 0.2617	2.046
x2 = 0.3067	2.351
x2 = 0.348	2.66
x2 = 0.377	2.889
x2 = 0.415	3.192
x2 = 0.4588	3.55
x2 = 0.491	3.816
x2 = 0.5348	4.198
x2 = 0.576	4.576
x2 = 0.6201	4.978
x2 = 0.6577	5.357
x2 = 0.7089	5.881
x2 = 0.7558	6.354
x2 = 0.8037	6.872
x2 = 0.8566	7.45
x2 = 0.9013	7.964
x2 = 0.9283	8.26
x2 = 0.9521	8.528
x2 = 0.9738	8.793
